# Reference: US8546357B2, “Boron-containing small molecules for controlling ectoparasites” (priority 2011, dated 2013)
# Tests used:
# [1] = Tolerability of oral treatment in dogs; format: in vivo, dog
# Method: (§1) The therapeutic (knockdown) and residual efficacy of 5, administered orally at a point dose of 25 mg/kg bodyweight, was evaluated against adult American dog tick (D. variabilis) infestations on dogs. Six beagle dogs were allocated to one of two treatment groups, an untreated control group (n=4 dogs) or 5 group (n=2 dogs). On Day 0, two dogs were treated with 5 via oral gavage (25 mg/ml 5, dissolved in a solution of 55% polyethylene glycol-300, 35% propylene glycol and 10% water) at a point dose of approximately 25 mg/kg. Twenty-four (24) hours before treatment (Day −1), all dogs were infested with approximately 50 unfed, adult-stage American dog ticks (D. variabilis; approximately 50% male and 50% female). On Day 1, approximately 24 hours after treatment, thumb counts were conducted to determine the number and life-status classification of ticks present on all dogs (normal, moribund or dead; attached or detached). Ticks were not removed during thumb counts. On Day 2, approximately 48 hours after treatment, all ticks were classified and removed from dogs. Dogs were re-infested with approximately 50 unfed, adult D. variabilis ticks on Days 5 and 12, with tick classification, counts and removal on Days 7 and 14 (approximately 48 hours after each infestation).
# (§2) The therapeutic (knockdown) and residual efficacy of 7 and 8, each administered orally at a point dose of 25 mg/kg bodyweight, was evaluated against adult tick (Dermacentor variabilis and Rhipicephalus sanguineus) and adult cat flea (Ctenocephalides felis) infestations on dogs. Twelve (12) male and female beagle dogs were randomly allocated to one of three treatment groups, four (4) dogs per group: Untreated control; 7, 25 mg/kg; and 8, 25 mg/kg. On Day −1, all dogs were infested with approximately 50 unfed, adult D. variabilis ticks. On Day 0, dogs were orally administered gelatin capsules containing either 7 or 8 (50% technical active, 47% microcrystalline cellulose and 3% croscarmellose sodium, w/w). Ticks were counted and classified, but not removed, on all dogs on Day 1, approximately 24 hours after treatment. On Day 2, approximately 48 hours after treatment, ticks were counted, classified and removed. Dogs were re-infested with the same number of D. variabilis ticks on Days 5, 12, 19 and 28 and tick counts were conducted on Days 7, 14, 21 and 30.
# The therapeutic (knockdown) and residual efficacy of 7, administered orally at a point dose of 35 mg/kg bodyweight, was evaluated against adult tick (Dermacentor variabilis and Rhipicephalus sanguineus) and adult cat flea (Ctenocephalides felis) infestations on dogs. Twelve (12) male and female beagle dogs were allocated to either an untreated, negative control group or 7 group (n=6 dogs per group). Dogs were infested with approximately 50 unfed, adult D. variabilis ticks on Days −1, 5, 12, 19, 28, 35 and 42. On Day 0, dogs were orally administered gelatin capsules containing Compound 8194 (50% technical active, 47% microcrystalline cellulose and 3% croscarmellose sodium, w/w) at a point dose of 35 mg/kg. […] GM percent efficacy of treatments against both tick species and fleas was calculated using the following formula: […]
# The therapeutic efficacy and speed of kill of 7, administered orally at a point dose of 20 mg/kg bodyweight, was evaluated against adult cat flea (Ctenocephalides felis) infestations on dogs. […]
# [2] = test system: Lone star tick larvae (Amblyomma americanum); assay: Larval immersion microassay against larval-stage Lone star ticks; conditions: Amblyomma americanum, 24 h, read-out: activity (percent larval mortality)
# Method: The larval immersion microassay was conducted as described in detail in White, et al., J. Med. Entomol. 41: 1034-1042 (2004). Compounds of the invention were formulated in dimethylsulfoxide (DMSO) to prepare a stock solution at a concentration of at least 10 mM. Using 96-well microtiter plates, an aliquot of the mM sample was subsequently diluted in a water-based solution containing 1% ethanol and 0.2% Triton X-100, to obtain the desired concentration (typically 0.3 mM or lower) of compound in a volume of 0.1 ml (minimum n=3 replicates per compound or concentration). Approximately 30-50 Lone star tick larvae (Amblyomma americanum) were submerged into each well containing compounds. After a 30 minute immersion period, larvae were removed with a wide-bore pipette tip in 0.05 ml of fluid, dispensed into a commercial paper tissue biopsy bag which was sealed at the top with a plastic dialysis clip, inverted and allowed to air dry for 60 minutes. Bags containing larvae were then incubated at approximately 27 degrees Celsius and >90% relative humidity. After 24 hours, bags were opened, live and dead larvae were counted and percent larval mortality was calculated.
# 7 and 8 contain one chiral center each, and are racemic mixtures comprised of approximately 50% R- and 50% S-enantiomer. In vitro and surrogate animal (rat) studies were conducted to evaluate the biological activity of the R- and S-enantiomers of 7 and 8. For the in vitro study, larvae of the Lone star tick (Amblyomma americanum) were exposed to 9, 10, 11 and 12 using the larval immersion microassay at a concentration of no greater than 0.3 mM. Following exposure, larvae were removed, transferred to a tissue biopsy bag and incubated at approximately 27 degrees Celsius and >90% relative humidity. After 24 hours, biopsy bags were opened and the numbers of live and dead larvae were determined
# [3] = test system: adult American dog tick (Dermacentor variabilis); assay: Therapeutic (knockdown) and residual efficacy against adult American dog tick infestations on dogs, oral; format: in vivo; conditions: for therapeutic efficacy / Residual efficacy: oral gavage 25 mg/kg
# Method: as §1, §2
# (§3) The therapeutic (knockdown) and residual efficacy of 7, administered orally at a point dose of 35 mg/kg bodyweight, was evaluated against adult tick (Dermacentor variabilis and Rhipicephalus sanguineus) and adult cat flea (Ctenocephalides felis) infestations on dogs. Twelve (12) male and female beagle dogs were allocated to either an untreated, negative control group or 7 group (n=6 dogs per group). Dogs were infested with approximately 50 unfed, adult D. variabilis ticks on Days −1, 5, 12, 19, 28, 35 and 42. On Day 0, dogs were orally administered gelatin capsules containing Compound 8194 (50% technical active, 47% microcrystalline cellulose and 3% croscarmellose sodium, w/w) at a point dose of 35 mg/kg. D. variabilis tick counts and classification were conducted on Day 1 (thumb count, approximately 24 hours after treatment) and Days 2, 7, 14, 21, 30, 37 and 44 (approximately 48 hours after treatment). Following removal of D. variabilis ticks on Day 30, all dogs were co-infested with approximately 50 unfed, adult brown dog ticks (R. sanguineus) and approximately 100 unfed, adult cat fleas (C. felis). Brown dog tick and cat flea counts were conducted on Day 32 (approximately 48 hours after infestation). GM percent efficacy of treatments against both tick species and fleas was calculated using the following formula: […]
# The therapeutic (knockdown) and residual efficacy of S-enantiomer, 9, administered orally at a point dose of 25 mg/kg bodyweight, was evaluated against adult tick (Dermacentor variabilis and Rhipicephalus sanguineus) and adult cat flea (Ctenocephalides felis) infestations on dogs. […]
# [4] = test system: cat flea (Ctenocephalides felis); assay: Residual efficacy against adult cat flea infestations on dogs, oral; format: in vivo; conditions: Day 32
# Method: (§4) Immediately following removal of D. variabilis ticks on Day 30, dogs were co-infested with approximately 50 adult, unfed brown dog ticks (R. sanguineus, approximately 50% male and 50% female) and approximately 100 adult, unfed cat fleas (C. felis, approximately 50% male and 50% female). Ticks and fleas were counted and removed on Day 32 (approximately 48 hours after infestation). GM percent efficacy of treatments against both tick species and fleas was calculated using the following formula: […]
# as §3
# (§5) The therapeutic (knockdown) and residual efficacy of S-enantiomer, 9, administered orally at a point dose of 25 mg/kg bodyweight, was evaluated against adult tick (Dermacentor variabilis and Rhipicephalus sanguineus) and adult cat flea (Ctenocephalides felis) infestations on dogs. Twelve (12) male and female beagle dogs were allocated to either an untreated, negative control group or 9 group (n=6 dogs per group). Dogs were infested with approximately 50 unfed, adult D. variabilis ticks on Days −1, 5, 12, 19, and 28. On Day 0, dogs were orally administered gelatin capsules containing 9 (50% technical active, 47% microcrystalline cellulose and 3% croscarmellose sodium, w/w) at a point dose of 25 mg/kg. D. variabilis tick counts and classification were conducted on Day 1 (thumb count, approximately 24 hours after treatment) and Days 2, 7, 14, 21 and 30 (approximately 48 hours after treatment). Following removal of D. variabilis ticks on Day 30, all dogs were co-infested with approximately 50 unfed, adult brown dog ticks (R. sanguineus) and approximately 100 unfed, adult cat fleas (C. felis). Brown dog tick and cat flea counts were conducted on Day 32 (approximately 48 hours after infestation). GM percent efficacy of treatments against both tick species and fleas was calculated using the following formula: […]
# [5] = test system: brown dog tick (Rhipicephalus sanguineus); assay: Residual efficacy against adult brown dog tick infestations on dogs, oral; format: in vivo; conditions: Day 32
# Method: as §4, §3, §5
# [6] = Table 2, oral capsule 25 mg/kg, Day 2
# [7] = Table 2, oral capsule 25 mg/kg, Day 7
# [8] = Table 2, oral capsule 25 mg/kg, Day 14
# [9] = Table 2, oral capsule 25 mg/kg, Day 21
# [10] = Table 2, oral capsule 25 mg/kg, Day 30
# [11] = Table 7, oral capsule 25 mg/kg, Day 1
# [12] = Table 7, oral capsule 25 mg/kg, Day 2
# [13] = Table 7, oral capsule 25 mg/kg, Day 7
# [14] = Table 7, oral capsule 25 mg/kg, Day 14
# [15] = Table 7, oral capsule 25 mg/kg, Day 21
# [16] = Table 7, oral capsule 25 mg/kg, Day 30
smiles,measurement,setting,value
"Cc1cc(C2=NOC(c3cc(Cl)c(F)c(Cl)c3)(C(F)(F)F)C2)ccc1C(=O)NCc1ccc2c(c1)B(O)OC2(C)C (racemic) [Compound 8, 4-(5-(3,5-Dichloro-4-fluorophenyl)-5-(trifluoromethyl)-4,5-dihydroisoxazol-3-yl)-N-((1-hydroxy-3,3-dimethyl-1,3-dihydrobenzo[c][1,2]oxaborol-6-yl)methyl)-2-methylbenzamide]",tolerability,"[1]; Example 6, oral capsule 25 mg/kg",well tolerated
same,mortality at 300 µM,[2],≥ 80%
same,continued residual efficacy,"[3]; Example 6, oral capsule 25 mg/kg, through at least 14 days",100%
same,Geometric mean group live parasite counts,"[3]; Table 2, oral capsule 25 mg/kg, Day 1",0.0
same,% efficacy,[3]; [6],(100) %
same,Geometric mean group live parasite counts,[3]; [6],0.0
same,% efficacy,[3]; [7],(100) %
same,Geometric mean group live parasite counts,[3]; [7],0.0
same,% efficacy,[3]; [8],(100) %
same,Geometric mean group live parasite counts,[3]; [8],0.0
same,% efficacy,[3]; [9],(98.4) %
same,Geometric mean group live parasite counts,[3]; [9],0.7
same,% efficacy,[3]; [10],(81.0) %
same,Geometric mean group live parasite counts,[3]; [10],6.7
same,Geometric mean group live parasite counts,"[4]; Table 2, oral capsule 25 mg/kg",7.1
same,Geometric mean group live parasite counts,"[5]; Table 2, oral capsule 25 mg/kg",4.1
"Cc1cc(C2=NOC(c3cc(Cl)c(F)c(Cl)c3)(C(F)(F)F)C2)ccc1C(=O)NCc1ccc2c(c1)C(C)(C)OB2O (stereo not shown) [Compound 3, 4-(5-(3,5-Dichloro-4-fluorophenyl)-5-(trifluoromethyl)-4,5-dihydroisoxazol-3-yl)-N-((1-hydroxy-3,3-dimethyl-1,3-dihydrobenzo[c][1,2]oxaborol-5-yl)methyl)-2-methylbenzamide]",mortality at 300 µM,[2],≥ 80%
same,Geometric mean group live parasite counts,[3]; [11],0.0
same,% efficacy,[3]; [12],(100) %
same,Geometric mean group live parasite counts,[3]; [12],0.0
same,Geometric mean group live parasite counts,[3]; [13],1.2
same,Geometric mean group live parasite counts,[3]; [14],13.3
"Cc1cc(C2=NOC(c3cc(Cl)cc(Cl)c3)(C(F)(F)F)C2)ccc1C(=O)NCc1ccc2c(c1)B(O)OC2(C)C (stereo not shown) [Compound 5, 4-(5-(3,5-Dichlorophenyl)-5-(trifluoromethyl)-4,5-dihydroisoxazol-3-yl)-N-((1-hydroxy-3,3-dimethyl-1,3-dihydrobenzo[c][1,2]oxaborol-6-yl)-methyl)-2-methyl benzamide]",tolerability,[1]; oral gavage 25 mg/kg,well tolerated
same,mortality at 300 µM,[2],≥ 80%
same,therapeutic efficacy,[3]; 24 hour post-treatment,100%
same,therapeutic efficacy,[3]; 48 hour post-treatment,100%
same,Residual efficacy,[3]; Day 7,82.6%
same,Residual efficacy,[3]; Day 14,82.7%
"Cc1cc(C2=NO[C@@](c3cc(Cl)c(F)c(Cl)c3)(C(F)(F)F)C2)ccc1C(=O)NCc1ccc2c(c1)B(O)OC2(C)C [Compound 11, (S)-4-(5-(3,5-Dichloro-4-fluorophenyl)-5-(trifluoromethyl)-4,5-dihydroisoxazol-3-yl)-N-((1-hydroxy-3,3-dimethyl-1,3-dihydrobenzo[c][1,2]oxaborol-6-yl)methyl)-2-methylbenzamide]",mortality at 300 µM,[2],≥ 80%
same,efficacy,"[3]; Example 11, oral capsule 25 mg/kg, through Day 21",≥ 99%
same,Geometric mean group live parasite counts,[3]; [11],0.0
same,% efficacy,[3]; [12],(100) %
same,Geometric mean group live parasite counts,[3]; [12],0.0
same,% efficacy,[3]; [13],(98.8) %
same,Geometric mean group live parasite counts,[3]; [13],0.3
same,% efficacy,[3]; [14],(99.1) %
same,Geometric mean group live parasite counts,[3]; [14],0.3
same,% efficacy,[3]; [15],(99.0) %
same,Geometric mean group live parasite counts,[3]; [15],0.2
same,% efficacy,[3]; [16],(95.6) %
same,Geometric mean group live parasite counts,[3]; [16],1.1
same,Geometric mean group live parasite counts,"[4]; Table 7, oral capsule 25 mg/kg",2.5
same,Geometric mean group live parasite counts,"[5]; Table 7, oral capsule 25 mg/kg",2.8
